The source made the active and inactive calls.
Assays:
Protein RecA = biological target: T1, Protein RecA (Mycobacterium tuberculosis, UniProt P9WHJ3); test: Fluorescence Cell-Free Homogeneous Dose Retest to Identify Inhibitors of RecA-Intein Splicing Activity. [Related pubchem assays (depositor defined):AID2097, AID2223, AID489010, AID492950]; type: functional
T1 sequence (P9WHJ3 whole entry): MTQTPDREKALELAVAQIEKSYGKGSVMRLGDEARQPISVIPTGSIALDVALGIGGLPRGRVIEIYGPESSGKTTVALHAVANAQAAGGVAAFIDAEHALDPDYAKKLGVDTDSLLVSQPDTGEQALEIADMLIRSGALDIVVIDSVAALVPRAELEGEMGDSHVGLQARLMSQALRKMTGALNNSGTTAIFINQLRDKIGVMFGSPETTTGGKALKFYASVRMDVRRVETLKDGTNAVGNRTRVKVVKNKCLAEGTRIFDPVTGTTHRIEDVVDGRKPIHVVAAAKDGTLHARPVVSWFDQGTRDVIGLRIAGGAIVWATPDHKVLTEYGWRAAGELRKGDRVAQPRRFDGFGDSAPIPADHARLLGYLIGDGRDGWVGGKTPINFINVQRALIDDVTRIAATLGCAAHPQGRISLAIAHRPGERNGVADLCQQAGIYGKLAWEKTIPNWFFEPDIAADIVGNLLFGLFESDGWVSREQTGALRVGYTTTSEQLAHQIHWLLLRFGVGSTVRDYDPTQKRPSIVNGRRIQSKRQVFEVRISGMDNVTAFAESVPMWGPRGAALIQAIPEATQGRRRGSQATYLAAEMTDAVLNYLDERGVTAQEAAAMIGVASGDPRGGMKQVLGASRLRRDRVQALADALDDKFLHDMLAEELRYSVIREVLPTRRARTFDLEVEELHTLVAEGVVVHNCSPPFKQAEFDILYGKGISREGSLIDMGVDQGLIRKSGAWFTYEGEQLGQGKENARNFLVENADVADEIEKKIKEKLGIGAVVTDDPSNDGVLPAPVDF

[1] = biological target: T2, Replicative DNA helicase DnaB (Mycobacterium tuberculosis, UniProt P9WMR3); test: DnaB intein splicing inhibitors, dose response, biochemical, cell-free fluorescence (AID 449749); type: functional
T2 sequence (P9WMR3 whole entry): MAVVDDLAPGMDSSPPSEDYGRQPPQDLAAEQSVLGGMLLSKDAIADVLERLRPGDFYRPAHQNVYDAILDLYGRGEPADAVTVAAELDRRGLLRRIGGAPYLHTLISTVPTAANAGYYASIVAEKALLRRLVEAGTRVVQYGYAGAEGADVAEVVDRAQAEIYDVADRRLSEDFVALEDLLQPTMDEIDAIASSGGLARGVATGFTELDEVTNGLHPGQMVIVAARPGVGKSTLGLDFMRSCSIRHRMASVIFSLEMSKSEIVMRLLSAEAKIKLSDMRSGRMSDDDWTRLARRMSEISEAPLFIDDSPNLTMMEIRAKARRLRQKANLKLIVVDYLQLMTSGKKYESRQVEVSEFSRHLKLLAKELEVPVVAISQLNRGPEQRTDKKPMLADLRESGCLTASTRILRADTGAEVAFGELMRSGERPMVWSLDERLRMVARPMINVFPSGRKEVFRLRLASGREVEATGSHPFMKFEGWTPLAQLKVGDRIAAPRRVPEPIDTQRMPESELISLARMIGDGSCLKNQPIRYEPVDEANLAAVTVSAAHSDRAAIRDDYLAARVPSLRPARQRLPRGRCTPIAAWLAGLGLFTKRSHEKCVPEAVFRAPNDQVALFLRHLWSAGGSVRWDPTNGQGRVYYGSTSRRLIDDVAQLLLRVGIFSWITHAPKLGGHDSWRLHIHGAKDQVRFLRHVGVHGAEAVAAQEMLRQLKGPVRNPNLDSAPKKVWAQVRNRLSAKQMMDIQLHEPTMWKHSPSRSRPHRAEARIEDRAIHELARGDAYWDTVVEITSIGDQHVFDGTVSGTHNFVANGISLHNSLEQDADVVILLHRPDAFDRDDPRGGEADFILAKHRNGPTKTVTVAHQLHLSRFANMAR

Hexokinase-1 = biological target: T3, Hexokinase-1 (Homo sapiens, UniProt P19367); test: hexokinase 1 activity inhibitors, potency – biochemical, set 2, resazurin fluorescence coupled readout, selectivity assay for HKDC1 inhibitor project, SAR follow-up (AID 588356); type: functional
T3 sequence (P19367 whole entry): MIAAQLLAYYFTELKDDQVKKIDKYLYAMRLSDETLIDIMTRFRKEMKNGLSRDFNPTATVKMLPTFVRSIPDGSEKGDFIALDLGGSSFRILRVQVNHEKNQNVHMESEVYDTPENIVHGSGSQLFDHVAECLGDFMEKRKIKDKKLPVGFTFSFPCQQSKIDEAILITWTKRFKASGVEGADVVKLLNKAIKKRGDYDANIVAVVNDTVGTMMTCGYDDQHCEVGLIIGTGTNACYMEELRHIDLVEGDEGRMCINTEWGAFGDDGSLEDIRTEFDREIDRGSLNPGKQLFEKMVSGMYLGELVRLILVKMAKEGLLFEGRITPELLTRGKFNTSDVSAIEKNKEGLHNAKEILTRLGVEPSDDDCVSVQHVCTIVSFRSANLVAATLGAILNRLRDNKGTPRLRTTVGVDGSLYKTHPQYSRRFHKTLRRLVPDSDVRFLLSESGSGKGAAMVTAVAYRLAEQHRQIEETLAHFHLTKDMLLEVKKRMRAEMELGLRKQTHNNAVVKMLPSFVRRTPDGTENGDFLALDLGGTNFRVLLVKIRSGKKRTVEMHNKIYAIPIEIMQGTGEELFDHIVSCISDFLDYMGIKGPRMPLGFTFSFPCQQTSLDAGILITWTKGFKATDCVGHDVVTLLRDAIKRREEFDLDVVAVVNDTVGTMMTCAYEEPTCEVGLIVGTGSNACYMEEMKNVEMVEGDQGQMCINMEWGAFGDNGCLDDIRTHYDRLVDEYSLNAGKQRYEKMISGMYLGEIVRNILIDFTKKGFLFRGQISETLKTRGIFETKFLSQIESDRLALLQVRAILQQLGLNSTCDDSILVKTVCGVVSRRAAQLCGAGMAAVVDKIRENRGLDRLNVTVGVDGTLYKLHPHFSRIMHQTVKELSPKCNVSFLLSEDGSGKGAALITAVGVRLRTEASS

Hexokinase HKDC1 [2] = biological target: T4, Hexokinase HKDC1 (Homo sapiens, UniProt Q2TB90); test: analog inhibition of human HKDC1 activity – biochemical, set 2, SAR follow-up (AID 588355); type: functional
T4 sequence (Q2TB90 whole entry): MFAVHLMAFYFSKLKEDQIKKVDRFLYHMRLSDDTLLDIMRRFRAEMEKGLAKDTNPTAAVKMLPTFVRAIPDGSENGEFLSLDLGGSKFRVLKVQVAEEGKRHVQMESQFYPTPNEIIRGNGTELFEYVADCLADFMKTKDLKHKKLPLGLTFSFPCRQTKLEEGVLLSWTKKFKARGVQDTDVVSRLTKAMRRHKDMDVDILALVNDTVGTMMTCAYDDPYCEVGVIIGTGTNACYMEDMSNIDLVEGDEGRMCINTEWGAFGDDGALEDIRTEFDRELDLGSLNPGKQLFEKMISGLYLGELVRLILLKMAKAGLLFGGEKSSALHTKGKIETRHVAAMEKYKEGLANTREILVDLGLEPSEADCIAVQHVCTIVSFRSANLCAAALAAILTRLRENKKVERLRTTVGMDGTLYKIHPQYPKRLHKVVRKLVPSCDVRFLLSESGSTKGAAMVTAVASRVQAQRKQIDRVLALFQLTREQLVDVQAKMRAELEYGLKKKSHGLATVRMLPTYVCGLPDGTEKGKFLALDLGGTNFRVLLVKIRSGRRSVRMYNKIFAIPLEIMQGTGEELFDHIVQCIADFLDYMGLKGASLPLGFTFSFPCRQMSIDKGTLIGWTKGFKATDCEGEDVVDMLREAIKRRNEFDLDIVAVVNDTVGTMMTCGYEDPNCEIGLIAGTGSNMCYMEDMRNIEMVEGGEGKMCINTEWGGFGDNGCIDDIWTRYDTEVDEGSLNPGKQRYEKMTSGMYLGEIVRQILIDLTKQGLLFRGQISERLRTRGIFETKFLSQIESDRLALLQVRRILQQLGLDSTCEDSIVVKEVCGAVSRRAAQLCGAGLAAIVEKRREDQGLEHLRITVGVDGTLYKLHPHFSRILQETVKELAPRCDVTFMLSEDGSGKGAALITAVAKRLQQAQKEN

Hexokinase HKDC1 [3] = biological target: T4, Hexokinase HKDC1; test: inhibition of HKDC1 glucose phosphorylation – biochemical, W721R variant, dose response (AID 504729); type: functional
[4] = biological target: Cystic fibrosis transmembrane conductance regulator/Golgi-associated PDZ and coiled-coil motif-containing protein (Homo sapiens, UniProt P13569+Q9HD26); test: potency against CAL PDZ-peptide interaction – biochemical, fluorescence polarization, Cerulean-tagged CAL PDZ, cherry-picks, dose response (AID 504773)
Cystic fibrosis transmembrane conductance regulator/Golgi-associated PDZ and coiled-coil motif-containing protein, sequence (P13569 whole entry, other chains not shown): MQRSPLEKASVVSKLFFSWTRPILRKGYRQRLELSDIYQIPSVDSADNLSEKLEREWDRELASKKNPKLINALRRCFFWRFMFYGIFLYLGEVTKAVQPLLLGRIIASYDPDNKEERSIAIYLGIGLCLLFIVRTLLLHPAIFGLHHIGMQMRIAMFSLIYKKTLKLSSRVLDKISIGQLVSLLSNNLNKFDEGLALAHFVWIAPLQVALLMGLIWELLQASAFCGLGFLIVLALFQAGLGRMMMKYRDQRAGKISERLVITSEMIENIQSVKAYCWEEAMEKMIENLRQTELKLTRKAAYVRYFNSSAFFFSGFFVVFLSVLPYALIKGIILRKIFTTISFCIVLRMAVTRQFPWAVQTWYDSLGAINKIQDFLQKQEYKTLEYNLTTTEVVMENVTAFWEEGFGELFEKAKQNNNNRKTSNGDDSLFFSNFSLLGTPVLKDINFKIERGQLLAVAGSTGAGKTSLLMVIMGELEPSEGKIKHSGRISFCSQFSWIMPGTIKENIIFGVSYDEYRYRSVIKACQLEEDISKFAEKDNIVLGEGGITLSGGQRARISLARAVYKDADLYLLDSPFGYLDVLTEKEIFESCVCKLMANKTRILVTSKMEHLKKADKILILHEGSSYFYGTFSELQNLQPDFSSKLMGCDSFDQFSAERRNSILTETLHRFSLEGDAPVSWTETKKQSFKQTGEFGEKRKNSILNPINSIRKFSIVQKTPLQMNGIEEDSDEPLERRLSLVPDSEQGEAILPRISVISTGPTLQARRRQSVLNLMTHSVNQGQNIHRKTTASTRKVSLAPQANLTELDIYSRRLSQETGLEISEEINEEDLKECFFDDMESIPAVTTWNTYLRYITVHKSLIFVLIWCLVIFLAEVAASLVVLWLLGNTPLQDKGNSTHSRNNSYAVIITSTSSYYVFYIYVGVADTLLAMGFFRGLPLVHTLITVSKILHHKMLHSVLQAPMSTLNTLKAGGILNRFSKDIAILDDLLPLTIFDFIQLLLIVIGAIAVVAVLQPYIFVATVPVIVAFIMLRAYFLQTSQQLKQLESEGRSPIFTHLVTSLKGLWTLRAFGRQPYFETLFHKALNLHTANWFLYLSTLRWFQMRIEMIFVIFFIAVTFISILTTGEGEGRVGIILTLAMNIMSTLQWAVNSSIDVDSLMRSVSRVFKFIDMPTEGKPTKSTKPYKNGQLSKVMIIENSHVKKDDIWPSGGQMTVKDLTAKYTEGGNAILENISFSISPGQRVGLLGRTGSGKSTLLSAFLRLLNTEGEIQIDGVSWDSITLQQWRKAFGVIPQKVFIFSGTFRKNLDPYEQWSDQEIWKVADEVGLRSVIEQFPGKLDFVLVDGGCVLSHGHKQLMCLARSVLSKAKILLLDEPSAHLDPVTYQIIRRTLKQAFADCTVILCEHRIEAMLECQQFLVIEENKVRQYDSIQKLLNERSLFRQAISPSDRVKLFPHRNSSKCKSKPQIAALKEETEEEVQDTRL

[5] = microbe, parasite or virus in culture; type: functional; conditions: Mycobacterium tuberculosis
[6] = viability of HCT116 lacking mutant beta-catenin – cell-based, human colon tumor, dose response (AID 1045); type: functional;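 note: HCT116 colon tumor cells with beta catenin knocked out; cells exposed to compound for 60 hours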
A-375 = test: proliferation inhibition in MITF-low A375 cells – cell-based, cherry-pick samples, set 2, counter-screen for MITF modulator project, dose response (AID 540335); type: functional; conditions: Homo sapiens
INS1 = test: INS-1E survival protection against cytokine death – cell-based, luminescence, retest, dose response (AID 449756); type: functional; conditions: Rattus norvegicus;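 note: cell death triggered by IL-1 beta plus TNF-alpha plus IFN-gamma mixture; protective hits raise ATP signal compared with cytokine alone wells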
[7] = biological target: T5, Microphthalmia-associated transcription factor (Homo sapiens, UniProt O75030); test: reducers of TRPM1 reporter luminescence, concentration series – cell-based, SK-MEL-5, cherry-picked, set 3, MITF inhibitor project, dose response (AID 493073); type: functional;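 note: SK-MEL-5 melanoma cells with luciferase driven by the MITF target TRPM1 promoter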
T5 sequence (O75030 whole entry): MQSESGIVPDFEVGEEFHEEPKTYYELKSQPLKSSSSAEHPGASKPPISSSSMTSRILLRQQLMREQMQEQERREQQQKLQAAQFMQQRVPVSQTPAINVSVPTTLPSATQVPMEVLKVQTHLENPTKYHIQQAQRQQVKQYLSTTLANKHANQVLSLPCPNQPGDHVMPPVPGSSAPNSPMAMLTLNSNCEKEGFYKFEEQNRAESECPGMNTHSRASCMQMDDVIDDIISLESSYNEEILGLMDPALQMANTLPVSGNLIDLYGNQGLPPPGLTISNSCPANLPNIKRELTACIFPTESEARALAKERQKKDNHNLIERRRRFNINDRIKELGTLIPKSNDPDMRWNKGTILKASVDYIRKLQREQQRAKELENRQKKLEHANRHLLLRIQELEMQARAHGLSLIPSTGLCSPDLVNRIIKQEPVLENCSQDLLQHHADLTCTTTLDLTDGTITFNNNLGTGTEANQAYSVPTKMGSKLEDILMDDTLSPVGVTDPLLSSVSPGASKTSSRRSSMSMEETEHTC

[8] = viability of PTEN-deleted HCT116 cells – cell-based, HCT116 PTEN knockout, dose response (AID 1047); type: functional;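 note: HCT116 colon tumor cells with PTEN knocked out; cells exposed to compound for 60 hours before readout; potency for loss of cell viability measured by luminescence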
[9] = Luminescence-based cell-based high throughput dose response assay to identify activators of the DAF-12 from the parasite S. stercoralis (ssDAF-12).; type: functional
[10] = biological target: Serine/threonine-protein phosphatase (Candida dubliniensis (strain CD36 / CBS 7987 / NCPF 3949 / NRRLY-17841) (Yeast), UniProt B9W6M3); test: blockers of CaCl2-induced CDRE-lacZ signaling – S. cerevisiae, luminescence, secondary, dose response (AID 2388); type: functional, cell-based;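 note: yeast reporter cells carrying a calcineurin-responsive lacZ construct stimulated with calcium chloride; luminescent beta-galactosidase reporter signal in whole cells rather than isolated phosphatase activity; potency for inhibition where a drop in reporter signal means calcineurin blockade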
Serine/threonine-protein phosphatase, sequence (B9W6M3 whole entry): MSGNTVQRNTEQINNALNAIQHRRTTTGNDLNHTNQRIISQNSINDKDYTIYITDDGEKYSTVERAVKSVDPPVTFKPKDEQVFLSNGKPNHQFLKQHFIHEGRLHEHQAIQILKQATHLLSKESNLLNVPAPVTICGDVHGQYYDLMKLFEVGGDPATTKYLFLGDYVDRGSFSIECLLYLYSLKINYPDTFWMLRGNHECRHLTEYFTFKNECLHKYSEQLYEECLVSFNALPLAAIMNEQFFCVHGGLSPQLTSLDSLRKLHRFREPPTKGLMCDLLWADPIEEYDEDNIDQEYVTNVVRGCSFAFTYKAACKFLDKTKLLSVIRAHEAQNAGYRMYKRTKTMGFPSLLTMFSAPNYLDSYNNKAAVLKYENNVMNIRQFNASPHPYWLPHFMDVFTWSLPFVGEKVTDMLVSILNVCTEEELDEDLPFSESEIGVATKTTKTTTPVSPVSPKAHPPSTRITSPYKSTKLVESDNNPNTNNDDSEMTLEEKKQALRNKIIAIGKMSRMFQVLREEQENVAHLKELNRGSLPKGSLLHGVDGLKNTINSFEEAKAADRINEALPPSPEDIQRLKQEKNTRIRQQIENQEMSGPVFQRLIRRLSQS

[11] = biological target: ATP-dependent molecular chaperone HSP82 (Candida albicans (strain WO-1) (Yeast), UniProt C4YTQ8); test: steroid-induced GRE reporter decrease in yeast – S. cerevisiae, luminescence, Hsp90 inhibitor project, dose response (AID 2400); type: functional, cell-based;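 note: beta-galactosidase luminescence from glucocorticoid response element reporter as proxy for Hsp90 function; inhibitor potency where signal loss means Hsp90 inhibition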
ATP-dependent molecular chaperone HSP82, sequence (C4YTQ8 whole entry): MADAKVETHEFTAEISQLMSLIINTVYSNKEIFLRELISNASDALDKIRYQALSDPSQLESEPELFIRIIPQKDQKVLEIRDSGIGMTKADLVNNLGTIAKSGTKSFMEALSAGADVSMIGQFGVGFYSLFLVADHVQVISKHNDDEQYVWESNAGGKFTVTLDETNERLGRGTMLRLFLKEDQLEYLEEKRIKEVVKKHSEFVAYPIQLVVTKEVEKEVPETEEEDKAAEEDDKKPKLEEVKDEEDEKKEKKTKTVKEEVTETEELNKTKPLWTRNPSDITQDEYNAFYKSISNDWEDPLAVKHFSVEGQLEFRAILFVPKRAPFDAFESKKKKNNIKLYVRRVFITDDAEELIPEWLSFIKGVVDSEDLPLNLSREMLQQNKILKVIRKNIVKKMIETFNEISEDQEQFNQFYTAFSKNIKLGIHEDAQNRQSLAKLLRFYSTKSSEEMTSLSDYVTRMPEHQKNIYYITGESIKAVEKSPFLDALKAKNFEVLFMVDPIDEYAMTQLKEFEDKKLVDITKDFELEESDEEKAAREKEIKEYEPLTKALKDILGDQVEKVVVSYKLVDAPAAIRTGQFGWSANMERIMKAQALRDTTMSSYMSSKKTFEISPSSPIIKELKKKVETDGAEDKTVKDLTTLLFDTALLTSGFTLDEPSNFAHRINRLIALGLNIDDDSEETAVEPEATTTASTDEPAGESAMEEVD

[12] = NIH-3T3 fibroblast cytotoxicity, dose response, cytotoxicity control, cell-based, fluorescence, Alamar Blue, secondary assay (AID 2327); type: functional;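 note: NIH-3T3 mouse fibroblasts cultured with fluconazole at 8 µg/mL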
[13] = biological target: T6, Oxysterols receptor LXR-beta (Homo sapiens, UniProt P55055); type: functional, cell-based;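 note: Cell-based luminescence dose-response assay of agonist activity at LXR, run as a confirmatory counterscreen to a daf-12 agonist screen; HEK293 cells with Gal4-LXR fusion and GAL4-driven luciferase reporter; agonist potency from rising luciferase signal of a Gal4-LXR reporter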
T6 sequence (P55055 whole entry): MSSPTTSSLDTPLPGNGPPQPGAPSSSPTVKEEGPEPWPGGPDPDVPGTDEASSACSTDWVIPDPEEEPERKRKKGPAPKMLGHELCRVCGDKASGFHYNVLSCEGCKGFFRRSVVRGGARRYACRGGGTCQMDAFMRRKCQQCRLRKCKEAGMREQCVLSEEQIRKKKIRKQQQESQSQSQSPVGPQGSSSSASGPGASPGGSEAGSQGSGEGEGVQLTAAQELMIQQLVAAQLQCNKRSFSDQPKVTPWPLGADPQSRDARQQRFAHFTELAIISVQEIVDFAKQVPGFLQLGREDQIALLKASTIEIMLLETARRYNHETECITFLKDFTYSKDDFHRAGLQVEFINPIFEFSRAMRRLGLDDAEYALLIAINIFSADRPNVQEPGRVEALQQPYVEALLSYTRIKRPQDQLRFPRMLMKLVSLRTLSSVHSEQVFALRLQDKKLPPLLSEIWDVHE

[14] = fluconazole-exposed Candida albicans growth modulators – fluorescence, retest, confirmation (AID 2467); type: functional, cell-based
HEK293 = test: cells; type: functional, cell-based; conditions: Homo sapiens
[15] = biological target: Nuclear receptor subfamily 0 group B member 1 (Homo sapiens, UniProt P51843); test: Luminescence-based cell-based high throughput dose response assay for inhibitors of the orphan nuclear receptor subfamily 0, group B, member 1 (DAX1; NR0B1). [Related pubchem assays (depositor defined):AID504766, AID504790]; type: functional
Nuclear receptor subfamily 0 group B member 1, sequence (P51843 whole entry): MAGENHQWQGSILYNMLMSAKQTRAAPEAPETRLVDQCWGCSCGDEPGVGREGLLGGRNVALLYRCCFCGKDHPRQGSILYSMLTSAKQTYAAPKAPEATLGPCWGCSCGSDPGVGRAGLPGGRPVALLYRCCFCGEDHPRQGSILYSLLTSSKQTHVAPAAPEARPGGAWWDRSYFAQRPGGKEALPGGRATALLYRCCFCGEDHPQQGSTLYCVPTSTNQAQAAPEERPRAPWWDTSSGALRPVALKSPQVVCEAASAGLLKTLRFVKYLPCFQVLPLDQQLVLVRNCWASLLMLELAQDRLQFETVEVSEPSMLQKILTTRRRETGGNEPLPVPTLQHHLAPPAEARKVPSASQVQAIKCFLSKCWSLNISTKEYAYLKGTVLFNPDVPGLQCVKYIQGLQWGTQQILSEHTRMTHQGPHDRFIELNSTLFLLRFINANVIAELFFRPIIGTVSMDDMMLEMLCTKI

CCOc1ccc2c(c1)C(NC(C)=O)C(=O)N2CCN1CCOCC1 (stereo unspecified)
EC50 (Protein RecA): 12.6 µM (active)
AC50 [1]: 27.8 µM (active)
IC50 (Hexokinase-1): > 80 µM (inactive)
IC50 (Hexokinase HKDC1 [2]): 8.44 µM (active)
IC50 (Hexokinase HKDC1 [3]): 6.63 µM (active)
AC50 [4]: 27.3 µM (active)

CC1CCC(C(C)C)C(OC(=O)Cn2c(-c3ccc(F)cc3)[n+](C)c3ccccc32)C1 (stereo unspecified)
CC50 [5]: 40 µM (active)
EC50 [6]: 4.18 µM (active)
AC50 (A-375): 47.2 µM (active)
AC50 (INS1): 3.69 µM (active)
AC50 [7]: 5.57 µM (active)
EC50 [8]: 4.98 µM (active)

CN1/C(=C/C(=O)c2cccs2)Sc2ccccc21
IC50 [9]: > 67.5 µM (inactive)
EC50 (cells): > 67.5 µM (inactive)
EC50 [10]: > 180 µM (inactive)
EC50 [11]: > 150 µM (inactive)
EC50 [12]: 14.7 µM (active)
EC50 [13]: > 67.5 µM (inactive)
EC50 [14]: 2.02 µM (active)

O=C(c1ccc(Br)cc1)c1coc2ccc(O)cc12
IC50 (HEK293): > 67.5 µM (inactive)
IC50 [15]: > 67.5 µM (inactive)

From ChEMBL document CHEMBL1201862, “PubChem BioAssay data set” (2004)
